We go through nine compounds from patent US6720142B1, “Method of determining evolutionary potential of mutant resistance genes and use thereof to screen for drug efficacy” (priority 1999, dated 2004).

≈ marks a conversion by molar mass, not a printed value. A value given as a limit tells only on which side of the number the result lay.

The test system of assay [1] is E. coli carrying pAmpC13A (mutant ampC, S303R). Put plainly: MIC test, mutant plasmid pAmpC13A. It is filed as cell-based. The protocol: (§1) Serial dilutions were prepared by first determining the volume of drug solution to be added to the first well in each row to achieve the desired concentration of drug in a total volume of 1 ml. The MIC was determined for the following drugs: ampicillin, pipericillin, temocillin, cephalothin, cefuroxime, cefotaxime, ceftazidime, cefepime, imipenem, meropenem, and aztreonam. To the first well in each row 1 ml of the diluted cell suspension was added, and to all remaining wells per row 0.5 ml of the diluted cell suspension was added. For each row, the predetermined volume of a drug solution was added to the first well per row, mixed well, and then 0.5 ml of the mixed solution was transferred to the next well, and so on until the serial dilutions were completed. From the last well in each row, 0.5 ml was removed so that all well contained 0.5 ml of the drug-containing culture. Plates were sealed with BreatheEasy film (Diversified Biotech, Boston, Mass.) and maintained overnight at 37° C. with shaking.
(§2) Plasmids were prepared from those isolates and were transformed into E. coli strain JM109.

For assay [2], the system named is host cells carrying PAmpC0-308 (AmpC N295 to S). Put plainly: MIC test, single-mutation plasmid PAmpC0-308. It is filed as cell-based, E. coli. Particulars: A644 to G.
In assay [3] the test system is E. coli JM109 carrying the plasmid vector pACSE without an ampC gene. Put plainly: MIC test, plasmid vector pACSE without an ampC gene. It is filed as cell-based. The settings on record: pACSE (vector, no ampC). The protocol:
(§3) Basically, a MIC determination is carried out by preparing serial dilutions of drugs in a micro-well plate and measuring host cell growth within those wells. The MIC for a particular set of host cells containing a mutant resistance gene is determined by examining the wells to locate the lowest concentration of drug which inhibited cell growth. This is capable of discriminating generally between those host cells containing mutant resistance genes conferring different degrees of resistance against the particular drug.
as §1, with “shaking. […] The MICs, in μg/ml, for each of the above-identified drugs was as follows: ampicillin, >1024; pipericillin, >1024; temocillin, 32: cephalothin, 1024; cefuroxime, 512; cefotaxime, 8; ceftazidime, 64; cefepime, 1; imipenem, 0.25; meropenem, 0.03125; and aztreonam, 16.” for “shaking.”
Plasmids were prepared from those isolates and were transformed into E. coli strain JM109. MICs conferred by each of those plasmids was determined as in Example 5.
(§4) MICs of three of the plasmids containing the wildtype AmpC gene into which the above mutations have been introduced have been determined, as shown in Table 2 below.

For assay [4], the system named is host cells carrying pAmpC0-305 (AmpC T121 to S). In words: MIC test, single-mutation plasmid pAmpC0-305. In kind it is cell-based, E. coli. Particulars: for MIC: pAmpC0-305, A663 to G, T121 to S. The protocol: as §3
as §1, with “shaking. […] The MICs, in μg/ml, for each of the above-identified drugs was as follows: ampicillin, >1024; pipericillin, >1024; temocillin, 32: cephalothin, 1024; cefuroxime, 512; cefotaxime, 8; ceftazidime, 64; cefepime, 1; imipenem, 0.25; meropenem, 0.03125; and aztreonam, 16.” for “shaking.”
(§5) To determine the phenotypic effects of each of the amino acid substitutions, the A907C, A587G, A663G, T869G, and A884G mutations are being individually introduced into pAmpC0 by site-directed mutagenesis. It is expected that the A907C mutation will result in MICs that are identical to pAmpC13A. The A587G, A663G, and As84G mutations will also be introduced individually into AmpC13 to determine whether the combination of any of those mutations with A907C will result in increased resistance levels.
as §4

Assay [5] concerns E. coli JM109 carrying pAmpC0 (wildtype E. coli K12 ampC gene). In words: MIC test, plasmid pAmpC0 (wildtype ampC gene). In kind it is cell-based. The settings on record: for MIC: pAmpC0 (wildtype ampC); for resistance conferred by plasmid pAmpC0: wildtype ampC gene, Table 1 boxed cells. The protocol:
as §3
All experiments utilizing ampicillin resistance will be directed toward the cloned and regulated ampC gene (or mutant ampC gene) in such a way that the regulation, i.e., the amount of enzyme produced per cell, will be held constant throughout the experiments and all of the “improvement” in resistance will come from improvement in β-lactamase activity.
as §1, with “shaking. […] The MICs, in μg/ml, for each of the above-identified drugs was as follows: ampicillin, >1024; pipericillin, >1024; temocillin, 32: cephalothin, 1024; cefuroxime, 512; cefotaxime, 8; ceftazidime, 64; cefepime, 1; imipenem, 0.25; meropenem, 0.03125; and aztreonam, 16. […]” for “shaking.”

For assay [6], the system named is E. coli carrying pAmpC21B (mutant ampC). In words: MIC test, mutant plasmid pAmpC21B. The settings on record: after two cycles of mutagenesis and selection. In kind it is cell-based. The protocol:
as §1, §2

Assay [7] deals with host cells carrying PAmpC0-307 (AmpC L290 to R). Put plainly: MIC test, single-mutation plasmid PAmpC0-307. It is filed as cell-based, E. coli. Particulars: for MIC: PAmpC0-307, T869 to G, L290 to R. The protocol: as §3
as §1, with “shaking. […] The MICs, in μg/ml, for each of the above-identified drugs was as follows: ampicillin, >1024; pipericillin, >1024; temocillin, 32: cephalothin, 1024; cefuroxime, 512; cefotaxime, 8; ceftazidime, 64; cefepime, 1; imipenem, 0.25; meropenem, 0.03125; and aztreonam, 16.” for “shaking.”
as §5, §4

Assay [8] has as its system E. coli DH5α-E containing multiply mutated ampC. Put plainly: MIC of population of E. coli host cells containing multiply mutated (DNA-shuffled) ampC. In kind it is cell-based. Particulars: Escherichia coli; lowest drug concentration that completely inhibited growth; overnight at 37° C., MH-I broth, 48-well plates, shuffled ampC library in DH5α-E. The protocol:
E. coli host cells prepared according to Example 4 were diluted into 100 ml MuellerHinton-IPTG (MH-T) broth. Duplicate samples of 10^0, 10^1, and 10^2 dilutions were spread onto L(tet) plates to estimate total transformants, and duplicate 10^0 and 10^1 samples were spread onto MH-I(ampicillin) plates to estimate the number of Amp^R transformants. 10 mg ampicillin was added to each culture using 1 ml of a 10 mg/ml ampicillin solution. The culture was allowed to stand overnight at 37° C. without shaking.
Next, the minimum inhibitory concentration of a number of drug was determined. An estimate of viable cells was calculated by assuming that an A600 of 1.0 is equivalent to 1.9×10^8 per ml for DH5α-E cells. A sample of the overnight culture was diluted into 70 ml of MH-I so that the number of cells per ml 10^5 per ml. The resulting suspension was used to determine MIC in 48-well microtiter plates.
as §1, with “shaking. […] The MICs, in μg/ml, for each of the above-identified drugs was as follows: ampicillin, >1024; pipericillin, >1024; temocillin, 32: cephalothin, 1024; cefuroxime, 512; cefotaxime, 8; ceftazidime, 64; cefepime, 1; imipenem, 0.25; meropenem, 0.03125; and aztreonam, 16.” for “shaking.”

For orientation: MIC means the least concentration at which growth counts as inhibited. Consider `CC1(C)S[C@@H]2[C@H](NC(=O)[C@H](N)c3ccccc3)C(=O)N2[C@H]1C(=O)O` [Ampicillin, ampicillin], for which the “clinical resistance conferred by pAmpC13A” value in assay [1] was “clinical resistance”. In addition, the “improved resistance conferred by pAmpC13A” value in assay [1] is reported as “improved resistance”. The MIC was 64 µg/mL (≈ 183 µM) in assay [2]; 2 µg/mL (≈ 5.72 µM) in assay [3]; 128 µg/mL in assay [4]; 128 µg/mL (≈ 366 µM) in assay [5]; 128 µg/mL in assay [7]; greater than 1020 µg/mL in assay [8]. Also, the “resistance conferred by plasmid pAmpC0” value in assay [5] is recorded as “confers resistance”. Moreover, the “clinical resistance conferred by pAmpC21B” value in assay [6] is “clinical resistance”.

As to `C[C@H]1[C@H](NC(=O)/C(=N\OC(C)(C)C(=O)O)c2csc(N)n2)C(=O)N1S(=O)(=O)O` [Aztreonam, aztreonam], the “improved resistance conferred by pAmpC13A” value in assay [1] is “improved resistance”. The MIC is 4 µg/mL (≈ 9.19 µM) in assay [2]; 0.5 µg/mL (≈ 1.15 µM) in assay [3]; 4 µg/mL in assay [4]; 4 µg/mL (≈ 9.19 µM) in assay [5]; 4 µg/mL in assay [7]; 16 µg/mL in assay [8]. The “resistance conferred by plasmid pAmpC0” value in assay [5] was “not”.

Regarding `CO/N=C(\C(=O)N[C@@H]1C(=O)N2C(C(=O)O)=C(COC(C)=O)CS[C@H]12)c1csc(N)n1` [Cefotaxime, cefotaxime], the “improved resistance conferred by pAmpC13A” value in assay [1] was “improved resistance”. For the same compound, the MIC was 0.5 µg/mL (≈ 1.1 µM) in assay [2]; 0.0625 µg/mL (≈ 0.137 µM) in assay [3]; 1 µg/mL in assay [4]; 1 µg/mL (≈ 2.2 µM) in assay [5]; 0.5 µg/mL in assay [7]; 8 µg/mL in assay [8]. In addition, in assay [5], the “resistance conferred by plasmid pAmpC0” value is given as “not”.

As for `CC(C)(O/N=C(\C(=O)N[C@@H]1C(=O)N2C(C(=O)[O-])=C(C[n+]3ccccc3)CS[C@H]12)c1csc(N)n1)C(=O)O` [Ceftazidime, ceftazidime], the “clinical resistance conferred by pAmpC13A” value in assay [1] is “clinical resistance”. In assay [1], the “improved resistance conferred by pAmpC13A” value is on record as “improved resistance”. The MIC came to 2 µg/mL (≈ 3.66 µM) in assay [2]; 0.5 µg/mL (≈ 0.915 µM) in assay [3]; 2 µg/mL in assay [4]; 2 µg/mL (≈ 3.66 µM) in assay [5]; 1 µg/mL in assay [7]; 64 µg/mL in assay [8]. Moreover, in assay [5], the “resistance conferred by plasmid pAmpC0” value is on record as “not”. For the same compound, in assay [6], the “clinical resistance conferred by pAmpC21B” value is “clinical resistance”.

As for `CO/N=C(\C(=O)N[C@@H]1C(=O)N2C(C(=O)O)=C(COC(N)=O)CS[C@H]12)c1ccco1` [Cefuroxime, cefuroxime], in assay [1], the “clinical resistance conferred by pAmpC13A” value is recorded as “clinical resistance”. Besides, the minimal inhibitory concentration (MIC) was 32 µg/mL (≈ 75.4 µM) in assay [2]; 16 µg/mL (≈ 37.7 µM) in assay [3]; 32 µg/mL in assay [4]; 64 µg/mL (≈ 151 µM) in assay [5]; 32 µg/mL in assay [7]; 512 µg/mL in assay [8]. In addition, the “resistance conferred by plasmid pAmpC0” value in assay [5] was “confers resistance”. Moreover, the “clinical resistance conferred by pAmpC21B” value in assay [6] was “clinical resistance”.

Regarding `CC(=O)OCC1=C(C(=O)O)N2C(=O)[C@@H](NC(=O)Cc3cccs3)[C@H]2SC1` [Cephalothin, cephalothin], the “clinical resistance conferred by pAmpC13A” value in assay [1] is “clinical resistance”. The minimal inhibitory concentration (MIC) in assay [2] was found to be 512 µg/mL (≈ 1290 µM); in assay [3] it was 16 µg/mL (≈ 40.4 µM); in assay [4], 512 µg/mL; in assay [5], 1020 µg/mL (≈ 2580 µM); in assay [7], 512 µg/mL; in assay [8] it was 1020 µg/mL. The “resistance conferred by plasmid pAmpC0” value in assay [5] is “confers resistance”. Besides, the “clinical resistance conferred by pAmpC21B” value in assay [6] is “clinical resistance”.

Consider `C[C@@H](O)[C@H]1C(=O)N2C(C(=O)O)=C(SCCN=CN)C[C@H]12` [Imipenem, imipenem], for which the MIC in assay [2] is 0.125 µg/mL (≈ 0.418 µM); in assay [3] it was 0.25 µg/mL (≈ 0.835 µM); in assay [4], 0.125 µg/mL; in assay [5] it was 0.25 µg/mL (≈ 0.835 µM); in assay [7], 0.125 µg/mL; in assay [8], 0.25 µg/mL.

For `C[C@@H](O)[C@H]1C(=O)N2C(C(=O)O)=C(S[C@@H]3CN[C@H](C(=O)N(C)C)C3)[C@H](C)[C@H]12` [Meropenem, meropenem], in assay [1], the “improved resistance conferred by pAmpC13A” value is given as “improved resistance”. In addition, the MIC was determined as 0.0156 µg/mL (≈ 0.0407 µM) in assay [2]; 0.00195 µg/mL (≈ 0.00509 µM) in assay [3]; 0.0156 µg/mL in assay [4]; 0.0312 µg/mL in assay [7]; 0.0312 µg/mL in assay [8]. In addition, the “change in resistance by A663G (T121S) mutation vs wildtype pAmpC0” value in assay [4] is recorded as “significantly increase resistance”. For the same compound, the “resistance conferred by plasmid pAmpC0” value in assay [5] was “not”. In addition, the “change in resistance by T869G (L290R) mutation vs wildtype pAmpC0” value in assay [7] is given as “significantly increase resistance”.

On to `CO[C@@]1(NC(=O)C(C(=O)O)c2ccsc2)C(=O)N2[C@@H](C(=O)O)C(C)(C)S[C@@H]21` (stereo partly drawn) [Temocillin, temocillin], for which, in assay [1], the “clinical resistance conferred by pAmpC13A” value is on record as “clinical resistance”. Besides, the “improved resistance conferred by pAmpC13A” value in assay [1] is on record as “improved resistance”. Besides, the MIC turned out to be 8 µg/mL (≈ 19.3 µM) in assay [2]; 16 µg/mL (≈ 38.6 µM) in assay [3]; 16 µg/mL in assay [4]; 16 µg/mL (≈ 38.6 µM) in assay [5]; 8 µg/mL in assay [7]; 32 µg/mL in assay [8]. Moreover, in assay [5], the “resistance conferred by plasmid pAmpC0” value was “not”.
